Test results as given in patent US20220370416A1, “COMPOUNDS AND METHODS FOR TARGETED DEGRADATION OF KRAS” (Arvinas Operations, Inc., priority 2020, published 2022).

Columns and labels:
[1] = target: T1, HiBit-KRAS^G12C (Homo sapiens, UniProt P01116, G12C); experiment: HiBit degradation assay in MiaPaCa-2 HiBit-KRas^G12C cells; format: cell-based; conditions: 24 hours; for Dmax: maximum degradation
In short: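 DC50 and Dmax come from 4-parameter fits of DMSO-normalized HiBit luminescence after 24 hours' exposure at 37° C to 10 μM–20 nM compound in 0.1% or 0.5% DMSO. Cells: MiaPaCa-2 carrying one endogenously HiBit-tagged KRAS^G12C allele; concentrations causing ≥50% […] viability loss (alamar blue) excluded.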

[2] = target: T1, HiBit-KRAS^G12C; experiment: HiBit degradation assay in SW1573 HiBit-KRas^G12C cells; format: cell-based; design: expressed in transfected cells; host or cells: SW1573 (clone E6), modified pcDNA3.1 vector, TK promoter; conditions: 24 hours
In short: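 HiBit-KRAS G12C degradation was measured after a 24 h compound exposure (titrated 10 μM–20 nM) in engineered SW1573 cells. Lytic HiBit luminescence, expressed relative to DMSO controls, yielded DC50 and Dmax from 4-parameter fits. Concentrations causing ≥50% loss in alamar blue viability were omitted as cytotoxic.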

[3] = MIA PaCa-2, read-out: KRas^G12C-HiBiT (MiaPaCa; 0.1% DMSO) DMax, MiaPaCa-2 HiBit-KRas^G12C cells, 0.1% DMSO
[4] = SW1573, read-out: KRas^G12C-HiBit (SW1573; 0.1% DMSO) Dmax**, SW1573 HiBit-KRas^G12C, 0.1% DMSO
[5] = SW1573 HiBit-KRas^G12C, 0.1% DMSO, read-out: KRas^G12C-HIBit (SW1573; 0.1% DMSO) DC50*
[6] = MIA PaCa-2, MiaPaCa-2 HiBit-KRas^G12C cells, 0.5% DMSO, read-out: KRas^G12C-HiBiT (MiaPaCa; 0.5% DMSO) DMax
[7] = read-out: KRas^G12C-HiBiT (MiaPaCa; 0.1% DMSO) IC50, MiaPaCa-2 HiBit-KRas^G12C cells, 0.1% DMSO
[8] = SW1573, SW1573 HiBit-KRas^G12C, 0.1% DMSO, read-out: KRas^G12C-HiBit (SW1573; 0.1% DMSO) Dmax**
[9] = SW1573, SW1573 HiBit-KRas^G12C, 0.5% DMSO, read-out: KRas^G12C-HiBiT (SW1573; 0.5% DMSO) Dmax**
[10] = MIA PaCa-2, MiaPaCa-2 HiBit-KRas^G12C cells, 0.1% DMSO, read-out: KRas^G12C-HiBiT (MiaPaCa; 0.1% DMSO) DMax

T1 sequence (P01116 1-186 isoform P01116-2 G12C limits assumed): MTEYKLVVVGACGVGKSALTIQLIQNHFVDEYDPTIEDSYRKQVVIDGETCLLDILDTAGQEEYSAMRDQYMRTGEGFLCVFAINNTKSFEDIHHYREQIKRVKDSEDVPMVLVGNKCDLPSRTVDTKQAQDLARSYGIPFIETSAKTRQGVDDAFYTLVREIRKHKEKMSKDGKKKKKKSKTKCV

Structure (SMILES) | Dmax [1, 3] | Dmax [2, 4] | DC50 [2, 5] | Dmax [1, 6] | DC50 [1, 7] | Dmax [2, 8] | Dmax [2, 9] | DC50 ([1]; read-out: KRas^G12C-HiBiT (MiaPaCa; 0.5% DMSO) IC50, MiaPaCa-2 HiBit-KRas^G12C cells, 0.5% DMSO) | DC50 ([2]; read-out: KRas^G12C-HiBiT (SW1573; 0.5% DMSO) IC50***, SW1573 HiBit-KRas^G12C, 0.5% DMSO) | Dmax [1, 10]
C=CC(=O)N1CCN(c2nc(O[C@H](C)CN3CC(CN4CCN(CC(=O)N[C@H](C(=O)N5C[C@H](O)C[C@H]5C(=O)N[C@@H](C)c5ccc(-c6scnc6C)cc5)C(C)(C)C)CC4)C3)nc3c(F)c(-c4cc(O)cc5ccccc45)c(Cl)cc23)CC1 [Compound 59, (2S,4R)-1-[(2S)-2-{2-[4-({1-[(2R)-2-{[6-chloro-8-fluoro-7-(3-hydroxynaphthalen-1-yl)-4-[4-(prop-2-enoyl)piperazin-1-yl]quinazolin-2-yl]oxy}propyl]azetidin-3-yl}methyl)piperazin-1-yl]acetamido}-3,3-dimethylbutanoyl]-4-hydroxy-N-[(1S)-1-[4-(4-methyl-1,3-thiazol-5-yl)phenyl]ethyl]pyrrolidine-2-carboxamide] | < 35% | 35 to 70% | > 1 µM |  |  |  |  |  |  | 
C=CC(=O)N1CCN(c2nc(OCCN3CCC(OCCOCCOCC(=O)N[C@H](C(=O)N4C[C@H](O)C[C@H]4C(=O)N[C@@H](C)c4ccc(-c5scnc5C)cc4)C(C)(C)C)CC3)nc3c(F)c(-c4cc(O)cc5ccccc45)c(Cl)cc23)CC1 [Compound 60, (2S,4R)-1-[(2S)-2-{2-[2-(2-{[1-(2-{[6-chloro-8-fluoro-7-(3-hydroxynaphthalen-1-yl)-4-[4-(prop-2-enoyl)piperazin-1-yl]quinazolin-2-yl]oxy}ethyl)piperidin-4-yl]oxy}ethoxy)ethoxy]acetamido}-3,3-dimethylbutanoyl]-4-hydroxy-N-[(1S)-1-[4-(4-methyl-1,3-thiazol-5-yl)phenyl]ethyl]pyrrolidine-2-carboxamide] |  |  | 0.1 to 1 µM | < 35% | > 1 µM | < 35% | 35 to 70% |  |  | 
C=CC(=O)N1CCN(c2nc(O[C@H](C)CN3CCC(OCCOCC(=O)N[C@H](C(=O)N4C[C@H](O)C[C@H]4C(=O)N[C@@H](C)c4ccc(-c5scnc5C)cc4)C(C)(C)C)CC3)nc3c(F)c(-c4c(O)cccc4F)c(Cl)cc23)CC1 [Compound 61, (2S,4R)-1-[(2S)-2-{2-[2-({1-[(2R)-2-{[6-chloro-8-fluoro-7-(2-fluoro-6-hydroxyphenyl)-4-[4-(prop-2-enoyl)piperazin-1-yl]quinazolin-2-yl]oxy}propyl]piperidin-4-yl}oxy)ethoxy]acetamido}-3,3-dimethylbutanoyl]-4-hydroxy-N-[(1S)-1-[4-(4-methyl-1,3-thiazol-5-yl)phenyl]ethyl]pyrrolidine-2-carboxamide] |  |  | 0.1 to 1 µM |  | > 1 µM | < 35% | 35 to 70% | > 1 µM | > 1 µM | 
C=CC(=O)N1CCN(c2nc(O[C@H](C)CN3CC(N4CCN(CC(=O)N[C@H](C(=O)N5C[C@H](O)C[C@H]5C(=O)N[C@@H](C)c5ccc(-c6scnc6C)cc5)C(C)(C)C)CC4)C3)nc3c(F)c(-c4cc(O)cc5ccccc45)c(Cl)cc23)CC1 [Compound 62, (2S,4R)-1-[(2S)-2-[2-(4-{1-[(2R)-2-{[6-chloro-8-fluoro-7-(3-hydroxynaphthalen-1-yl)-4-[4-(prop-2-enoyl)piperazin-1-yl]quinazolin-2-yl]oxy}propyl]azetidin-3-yl}piperazin-1-yl)acetamido]-3,3-dimethylbutanoyl]-4-hydroxy-N-[(1S)-1-[4-(4-methyl-1,3-thiazol-5-yl)phenyl]ethyl]pyrrolidine-2-carboxamide] | < 35% | 35 to 70% | 0.1 to 1 µM |  |  |  |  |  |  | 
C=CC(=O)N1CCN(c2nc(OCCN3CCC(COCC(=O)N[C@H](C(=O)N4C[C@H](O)C[C@H]4C(=O)N[C@@H](C)c4ccc(-c5scnc5C)cc4)C(C)(C)C)CC3)nc3c(F)c(-c4cc(O)cc5ccccc45)c(Cl)cc23)CC1 [Compound 63, (2S,4R)-1-[(2S)-2-(2-{[1-(2-{[6-chloro-8-fluoro-7-(3-hydroxynaphthalen-1-yl)-4-[4-(prop-2-enoyl)piperazin-1-yl]quinazolin-2-yl]oxy}ethyl)piperidin-4-yl]methoxy}acetamido)-3,3-dimethylbutanoyl]-4-hydroxy-N-[(1S)-1-[4-(4-methyl-1,3-thiazol-5-yl)phenyl]ethyl]pyrrolidine-2-carboxamide] |  |  | 0.1 to 1 µM | 35 to 70% |  | 35 to 70% | > 70% |  |  | 35 to 70%
C=CC(=O)N1CCN(c2nc(OCCN3CCC(CCOCC(=O)N[C@H](C(=O)N4C[C@H](O)C[C@H]4C(=O)N[C@@H](C)c4ccc(-c5scnc5C)cc4)C(C)(C)C)CC3)nc3c(F)c(-c4cc(O)cc5ccccc45)c(Cl)cc23)CC1 [Compound 64, (2S,4R)-1-[(2S)-2-(2-{2-[l-(2-{[6-chloro-8-fluoro-7-(3-hydroxynaphthalen-1-yl)-4-[4-(prop-2-enoyl)piperazin-1-yl]quinazolin-2-yl]oxy}ethyl)piperidin-4-yl]ethoxy}acetamido)-3,3-dimethylbutanoyl]-4-hydroxy-N-[(1S)-1-[4-(4-methyl-1,3-thiazol-5-yl)phenyl]ethyl]pyrrolidine-2-carboxamide] |  |  | 0.1 to 1 µM | 35 to 70% |  | 35 to 70% | 35 to 70% |  |  | < 35%
C=CC(=O)N1CCN(c2nc(O[C@H](C)CN3CCC(COCC(=O)N[C@H](C(=O)N4C[C@H](O)C[C@H]4C(=O)N[C@@H](C)c4ccc(-c5scnc5C)cc4)C(C)(C)C)CC3)nc3c(F)c(-c4cc(O)cc5ccccc45)c(Cl)cc23)CC1 [Compound 65, (2S,4R)-1-[(2S)-2-[2-({1-[(2R)-2-{[6-chloro-8-fluoro-7-(3-hydroxynaphthalen-1-yl)-4-[4-(prop-2-enoyl)piperazin-1-yl]quinazolin-2-yl]oxy}propyl]piperidin-4-yl}methoxy)acetamido]-3,3-dimethylbutanoyl]-4-hydroxy-N-[(1S)-1-[4-(4-methyl-1,3-thiazol-5-yl)phenyl]ethyl]pyrrolidine-2-carboxamide] |  |  | 0.1 to 1 µM | 35 to 70% |  | 35 to 70% | > 70% |  |  | 35 to 70%
C=CC(=O)N1CCN(c2nc(OCCN3CCC(OCCOCC(=O)N[C@H](C(=O)N4C[C@H](O)C[C@H]4C(=O)N[C@@H](C)c4ccc(-c5scnc5C)cc4)C(C)(C)C)CC3)nc3c(F)c(-c4cc(O)cc5ccccc45)c(Cl)cc23)CC1 [Compound 66, (2S,4R)-1-[(2S)-2-[2-(2-{[1-(2-{[6-chloro-8-fluoro-7-(3-hydroxynaphthalen-1-yl)-4-[4-(prop-2-enoyl)piperazin-1-yl]quinazolin-2-yl]oxy}ethyl)piperidin-4-yl]oxy}ethoxy)acetamido]-3,3-dimethylbutanoyl]-4-hydroxy-N-[(1S)-1-[4-(4-methyl-1,3-thiazol-5-yl)phenyl]ethyl]pyrrolidine-2-carboxamide] |  |  | 0.1 to 1 µM | 35 to 70% |  | 35 to 70% | 35 to 70% |  |  | < 35%
C=CC(=O)N1CCN(c2nc(O[C@@H](C)CN3CCC(OCCOCC(=O)N[C@H](C(=O)N4C[C@H](O)C[C@H]4C(=O)N[C@@H](C)c4ccc(-c5scnc5C)cc4)C(C)(C)C)CC3)nc3c(F)c(-c4cc(O)cc5ccccc45)c(Cl)cc23)CC1 [Compound 67, (2S,4R)-1-[(2S)-2-{2-[2-({1-[(2S)-2-{[6-chloro-8-fluoro-7-(3-hydroxynaphthalen-1-yl)-4-[4-(prop-2-enoyl)piperazin-1-yl]quinazolin-2-yl]oxy}propyl]piperidin-4-yl}oxy)ethoxy]acetamido}-3,3-dimethylbutanoyl]-4-hydroxy-N-[(1S)-1-[4-(4-methyl-1,3-thiazol-5-yl)phenyl]ethyl]pyrrolidine-2-carboxamide] |  |  | 0.1 to 1 µM | 35 to 70% |  | 35 to 70% | 35 to 70% |  |  | 35 to 70%
